≈ marks a conversion by molar mass, not a printed value.
Assays:
Assay in all cases: ≥ marks a high value that may be exact or a test limit, other limits are often not marked, values filed in µg/mL are converted to µM
[1] = tested on: Bacillus subtilis IFO 3143
[2] = tested on: Escherichia coli IFO 12734
[3] = tested on: Pseudomonas aeruginosa IFO 12582
[4] = tested on: Staphylococcus aureus IFO 12732
[5] = tested on: Escherichia coli ATCC 25922
[6] = tested on: Pseudomonas aeruginosa ATCC 27853
[7] = tested on: Staphylococcus aureus ATCC 29313
[8] = tested on: Xanthomonas axonopodis pv. citri
[9] = tested on: Acinetobacter baumannii NM8
[10] = tested on: Candida albicans ATCC 90028
[11] = tested on: Escherichia coli ATCC 25726
[12] = tested on: Klebsiella pneumoniae ATCC 700603
[13] = tested on: Staphylococcus aureus ATCC 25923
[14] = tested on: Staphylococcus epidermidis RP62A/1
[15] = tested on: Staphylococcus epidermidis RP62A
[16] = tested on: Stenotrophomonas maltophilia B32/4
[17] = tested on: Bacillus subtilis IFO 3513
[18] = tested on: Aspergillus flavus KCTC 1375
[19] = tested on: Enterococcus faecium ATCC 19434
Enterococcus faecium = tested on: Enterococcus faecium
[20] = tested on: Escherichia coli O157:H7 ATCC 43895
Escherichia coli = tested on: Escherichia coli
[21] = tested on: Malassezia furfur KCTC 7744
Pseudomonas aeruginosa = tested on: Pseudomonas aeruginosa
Staphylococcus aureus = tested on: Staphylococcus aureus
[22] = tested on: Aspergillus flavus KCTC 7375
[23] = tested on: Bacillus megaterium KCTC 1096
[24] = tested on: Bacillus subtilis KCTC 1918
[25] = tested on: Candida albicans KCTC 7121
[26] = tested on: Escherichia coli KCTC 1682
[27] = tested on: Fusarium oxysporum KCTC 6084
Proteus vulgaris = tested on: Proteus vulgaris
[28] = tested on: Pseudomonas aeruginosa KCTC 1637
[29] = tested on: Staphylococcus aureus KCTC 1621
[30] = tested on: Trichosporon beigelii KCTC 7251
Aspergillus fumigatus = tested on: Aspergillus fumigatus
[31] = tested on: Staphylococcus aureus ATCC 49230
[32] = tested on: Staphylococcus epidermidis ATCC 35984
Escherichia coli OP50 = tested on: Escherichia coli OP50

Molecule `CC(C)C[C@H](NC(=O)[C@H](Cc1ccc(O)cc1)NC(=O)[C@H](Cc1cnc[nH]1)NC(=O)[C@@H](NC(=O)[C@H](CC(C)C)NC(=O)[C@H](C)NC(=O)[C@H](C)NC(=O)[C@H](CCCCN)NC(=O)CNC(=O)[C@@H](NC(=O)[C@H](Cc1cnc[nH]1)NC(=O)[C@H](CCCCN)NC(=O)CNC(=O)[C@@H](NC(=O)[C@H](Cc1cnc[nH]1)NC(=O)[C@H](C)NC(=O)[C@H](C)NC(=O)[C@H](CCCCN)NC(=O)[C@H](CCCCN)NC(=O)[C@H](Cc1ccccc1)NC(=O)[C@H](Cc1ccccc1)NC(=O)[C@H](CO)NC(=O)[C@H](C)NC(=O)[C@H](Cc1c[nH]c2ccccc12)NC(=O)[C@H](C)N)C(C)C)C(C)C)[C@@H](C)O)C(=O)O` [AWASFFKKAAHVGKHVGKAALTHYL] has an MIC [1] of 2.92 µM (≈ 8 µg/mL), an MIC [2] of 5.84 µM (≈ 16 µg/mL) and an MIC [3] of 23.4 µM (≈ 64 µg/mL). It also gave an MIC [4] of 2.92 µM (≈ 8 µg/mL).
`CC(C)C[C@H](NC(=O)[C@H](CO)NC(=O)[C@H](CCCCN)NC(=O)[C@H](CC(C)C)NC(=O)[C@H](CCCCN)NC(=O)[C@H](CC(=O)O)NC(=O)[C@H](CC(C)C)NC(=O)[C@H](Cc1c[nH]c2ccccc12)NC(=O)[C@H](C)N)C(=O)NCC(=O)N[C@@H](CCCCN)C(=O)N[C@H](C(=O)N[C@H](C(=O)NCC(=O)O)C(C)C)C(C)C` [AWLDKLKSLGKVVG] was tested, and the MIC [5] was 85 µM (≈ 129 µg/mL), the MIC [6] was 170 µM (≈ 257 µg/mL) and the MIC [7] was at least 170 µM. It also gave an MIC [8] of 5 µM (≈ 7.57 µg/mL).
`CC[C@H](C)[C@H](N)C(=O)N[C@@H](CC(C)C)C(=O)NCC(=O)N[C@@H](CCCCN)C(=O)N[C@@H](CC(C)C)C(=O)N[C@@H](CC(C)C)C(=O)N[C@@H](CCCCN)C(=O)N[C@H](C(=O)N[C@@H](C)C(=O)N[C@@H](C)C(=O)N[C@@H](CCCCN)C(=O)N[C@@H](CC(C)C)C(=O)N[C@@H](CC(C)C)C(=O)N[C@@H](CO)C(=O)N[C@@H](CC(N)=O)C(=O)N[C@@H](CC(C)C)C(N)=O)[C@@H](C)O` [ILGKLLKTAAKLLSNL] gave an MIC [9] of 4 µM (≈ 6.78 µg/mL), an MIC [10] of 8 µM (≈ 13.6 µg/mL) and an MIC [11] of 16 µM (≈ 27.1 µg/mL). The MIC [12] was 16 µM (≈ 27.1 µg/mL), the MIC [6] was 8 µM (≈ 13.6 µg/mL) and the MIC [13] was 4 µM (≈ 6.78 µg/mL). It also gave an MIC [14] of 2 µM (≈ 3.39 µg/mL), an MIC [15] of 2 µM (≈ 3.39 µg/mL) and an MIC [16] of 4 µM (≈ 6.78 µg/mL).
`CC[C@H](C)[C@H](N)C(=O)N[C@@H](CC(C)C)C(=O)N1CCC[C@H]1C(=O)N[C@@H](Cc1c[nH]c2ccccc12)C(=O)N[C@@H](CCCCN)C(=O)N[C@@H](Cc1c[nH]c2ccccc12)C(=O)N1CCC[C@H]1C(=O)N[C@@H](Cc1c[nH]c2ccccc12)C(=O)N[C@@H](CC(C)C)C(=O)N1CCC[C@H]1C(=O)N[C@@H](Cc1c[nH]c2ccccc12)C(=O)N[C@@H](CCCN=C(N)N)C(=O)N[C@@H](CCCN=C(N)N)C(N)=O` [ILPWKWPWLPWRR] gave an MIC [17] of 0.851 µM (≈ 1.56 µg/mL), an MIC [2] of 6.81 µM (≈ 12.5 µg/mL) and an MIC [4] of 0.851 µM (≈ 1.56 µg/mL).
In the case of `CC(C)C[C@H](NC(=O)[C@H](Cc1ccc(O)cc1)NC(=O)[C@H](Cc1cnc[nH]1)NC(=O)[C@@H](NC(=O)[C@H](CC(C)C)NC(=O)[C@H](C)NC(=O)[C@H](C)NC(=O)[C@H](CCCCN)NC(=O)CNC(=O)[C@@H](NC(=O)[C@H](Cc1cnc[nH]1)NC(=O)[C@H](CCCCN)NC(=O)CNC(=O)[C@@H](NC(=O)[C@H](Cc1cnc[nH]1)NC(=O)[C@H](C)NC(=O)[C@H](C)NC(=O)[C@H](CCCCN)NC(=O)[C@@H](N)CCCCN)C(C)C)C(C)C)[C@@H](C)O)C(N)=O` [KKAAHVGKHVGKAALTHYL], the MIC [18] was at least 40 µM, the MIC [10] was at least 40 µM and the MIC [19] was at least 40 µM. For the same molecule, the MIC (Enterococcus faecium) was at least 40 µM, the MIC [20] was 28.3 µM (≈ 57.4 µg/mL) and the MIC (Escherichia coli) was 28.3 µM (≈ 57.4 µg/mL). The MIC [21] was at least 56.6 µM, the MIC [6] was 40 µM (≈ 81.1 µg/mL) and the MIC (Pseudomonas aeruginosa) was 40 µM (≈ 81.1 µg/mL). For the same molecule, the MIC [13] was 28.3 µM (≈ 57.4 µg/mL) and the MIC (Staphylococcus aureus) was 28.3 µM (≈ 57.4 µg/mL).
Work on `CC[C@H](C)[C@H](NC(=O)[C@H](CCCCN)NC(=O)[C@H](CCCCN)NC(=O)[C@H](Cc1ccccc1)NC(=O)[C@H](CC(C)C)NC(=O)[C@H](CCCCN)NC(=O)[C@H](Cc1c[nH]c2ccccc12)NC(=O)[C@@H](N)CCCCN)C(=O)N[C@@H](CC(C)C)C(=O)N[C@@H](CCCCN)C(=O)N[C@@H](Cc1ccccc1)C(=O)N[C@@H](CC(C)C)C(=O)N[C@@H](Cc1cnc[nH]1)C(=O)N[C@@H](CC(C)C)C(=O)N[C@@H](C)C(=O)N[C@@H](CCCCN)C(=O)N[C@@H](CCCCN)C(=O)N[C@@H](Cc1ccccc1)C(N)=O` [KWKLFKKILKFLHLAKKF] yielded an MIC [22] of 25 µM (≈ 57.9 µg/mL), an MIC [23] of 1.56 µM (≈ 3.61 µg/mL) and an MIC [24] of 1.56 µM (≈ 3.61 µg/mL). The MIC [25] was 25 µM (≈ 57.9 µg/mL), the MIC [26] was 12.5 µM (≈ 29 µg/mL) and the MIC [27] was at least 50 µM. The MIC (Proteus vulgaris) was 6.25 µM (≈ 14.5 µg/mL), the MIC [28] was 3.12 µM (≈ 7.24 µg/mL) and the MIC [29] was 3.12 µM (≈ 7.24 µg/mL). For the same molecule, the MIC [30] was 12.5 µM (≈ 29 µg/mL).
`CC(C)C[C@H](NC(=O)[C@H](CC(C)C)NC(=O)[C@H](Cc1ccccc1)NC(=O)[C@H](CC(C)C)NC(=O)[C@H](CC(C)C)NC(=O)[C@@H](N)CC(C)C)C(=O)N[C@@H](CCCCN)C(=O)N[C@@H](CCCCN)C(=O)N[C@@H](CCCN=C(N)N)C(=O)N[C@@H](CCCCN)C(=O)N[C@@H](CCCCN)C(=O)N[C@@H](CCCN=C(N)N)C(=O)N[C@@H](CCCCN)C(=O)N[C@@H](Cc1ccc(O)cc1)C(=O)O` [LLLFLLKKRKKRKY] was tested, and the MIC (Aspergillus fumigatus) was 3.6 µM (≈ 6.65 µg/mL), the MIC [5] was 8.66 µM (≈ 16 µg/mL) and the MIC [6] was 2.17 µM (≈ 4 µg/mL). It also gave an MIC [31] of 2.17 µM (≈ 4 µg/mL) and an MIC [32] of 1.08 µM (≈ 2 µg/mL).
Work on `CC(C)[C@@H]1NC(=O)[C@@H]2CSSC[C@@H]3NC(=O)[C@H](CCCCN)NC(=O)CNC(=O)[C@H](CCC(=O)O)NC(=O)[C@H](CC(=O)O)NC(=O)[C@H]([C@@H](C)O)NC(=O)[C@@H]4CCCN4C(=O)[C@@H](NC(=O)CNC(=O)[C@H](Cc4ccc(O)cc4)NC(=O)[C@@H]4CCCN4C(=O)[C@H](CC(N)=O)NC(=O)[C@H](CCC(=O)O)NC(=O)[C@@H](N)Cc4ccc(O)cc4)CSSC[C@H](NC(=O)[C@H](Cc4ccc(O)cc4)NC(=O)CNC(=O)CNC(=O)[C@H](CCC(=O)O)NC(=O)[C@H](Cc4ccccc4)NC(=O)[C@H](CCC(=O)O)NC(=O)[C@H](CO)NC(=O)[C@H](CC(=O)O)NC(=O)[C@H](CC(N)=O)NC(=O)[C@H](CSSC[C@@H](C(=O)N[C@@H](Cc4ccc(O)cc4)C(=O)N[C@@H](CCCN=C(N)N)C(=O)N[C@H](C(=O)O)[C@@H](C)O)NC1=O)NC(=O)[C@H](CCCN=C(N)N)NC(=O)[C@H](CC(=O)O)NC(=O)[C@H](Cc1ccccc1)NC3=O)C(=O)NCC(=O)NCC(=O)N[C@@H](CO)C(=O)N[C@@H](Cc1ccc(O)cc1)C(=O)N[C@@H](CCCN=C(N)N)C(=O)N[C@@H](C)C(=O)N[C@@H]([C@@H](C)O)C(=O)N2` [YENPYGCPTDEGKCFDRCNDSEFEGGYCGGSYRATCVCYRT] yielded an MIC (Escherichia coli OP50) of 30 µM (≈ 138 µg/mL) and an MIC (Staphylococcus aureus) of 7.5 µM (≈ 34.6 µg/mL).
